Assay results taken from patent US12595253B2, “Benzamides of pyrazolylamino-pyrimidinyl derivatives, and compositions and methods thereof” (LYNK PHARMACEUTICALS CO. LTD., priority 2019, dated 2026).

Columns and labels:
FLT3 = biological target: T1, FLT3 (Homo sapiens, UniProt P36888); assay: FLT3 microfluidic kinase assay; format: biochemical
T1 construct: purchased Carna Biosciences
T1 sequence (P36888 27-993): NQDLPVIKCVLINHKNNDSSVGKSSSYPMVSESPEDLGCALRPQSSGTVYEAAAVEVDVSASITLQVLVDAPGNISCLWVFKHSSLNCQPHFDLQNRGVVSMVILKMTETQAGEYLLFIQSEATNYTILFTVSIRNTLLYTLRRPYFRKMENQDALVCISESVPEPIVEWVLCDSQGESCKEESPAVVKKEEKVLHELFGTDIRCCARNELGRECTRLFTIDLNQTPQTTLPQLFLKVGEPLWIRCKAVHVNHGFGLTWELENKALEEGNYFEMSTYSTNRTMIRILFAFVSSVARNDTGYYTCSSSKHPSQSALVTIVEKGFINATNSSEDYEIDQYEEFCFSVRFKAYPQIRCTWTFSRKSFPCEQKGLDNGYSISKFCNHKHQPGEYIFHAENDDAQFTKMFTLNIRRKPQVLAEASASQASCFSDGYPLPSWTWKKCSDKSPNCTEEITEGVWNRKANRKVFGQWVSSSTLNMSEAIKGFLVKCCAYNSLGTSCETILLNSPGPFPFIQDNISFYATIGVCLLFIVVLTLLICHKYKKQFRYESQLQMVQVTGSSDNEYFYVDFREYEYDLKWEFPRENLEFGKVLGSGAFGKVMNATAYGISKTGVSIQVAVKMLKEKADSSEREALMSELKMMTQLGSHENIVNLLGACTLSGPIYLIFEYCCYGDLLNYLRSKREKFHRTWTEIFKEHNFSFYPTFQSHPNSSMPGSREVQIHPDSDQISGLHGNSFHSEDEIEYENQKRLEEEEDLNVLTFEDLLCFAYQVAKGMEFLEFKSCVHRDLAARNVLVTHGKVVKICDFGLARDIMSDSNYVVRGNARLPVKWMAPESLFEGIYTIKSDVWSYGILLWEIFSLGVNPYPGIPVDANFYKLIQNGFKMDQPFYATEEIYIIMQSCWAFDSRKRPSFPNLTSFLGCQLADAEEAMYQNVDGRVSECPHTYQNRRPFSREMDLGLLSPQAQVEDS
Description: Compounds were tested against FLT3, FLT3ITD and FLT3D835Y.
Assay Formats: FLT3 activity was determined in the reaction buffer 50 mM HEPES, 10 mM MgCl2 and 2 mM DTT by a microfluidic assay. The phosphorylation of a FAM labeled peptide substrate was monitored in the Caliper EZ Reader II (Perkin Elmer). The assay condition for each batch of enzyme (Carna Biosciences) was optimized to obtain 10% conversion rate of peptide substrate.
The test compounds were dissolved in DMSO to a stock concentration of 10 mM. 3-fold serially diluted compounds with top concentration of 5 μM were pre-incubated with FLT3, FLT3ITD or FLT3D835Y for 10 min at ambient temperature. The final DMSO concentration of assay mixture was 1%. […] The reaction was stopped by adding 50 mM EITA. The reaction time for FLT3, FLT3ITD and FLT3D8335Y was 30 min, 40 min and 40 min, respectively.
And the well without compound but with equivalent DMSO was defined as no inhibition. The percent inhibition was calculated by the following formula. % Inhibition=(Conversionmax−Conversionsample)/(Conversionmax−Conversionmin)*100 • Conversionmax means the conversion rate in the positive well without addition of compound • Conversionmin means the conversion rate in the well without addition of enzyme • Conversionsample means the conversion rate of test compounds
The dose-response (percent inhibition) curve was plotted and IC50 values were determined by GraphPad software.

[1] = Liver microsomes study, Phase I stability (RLM); format: in vitro ADME, rat; settings: pH 7.4; rat liver microsomes 0.5 mg/mL, 1 μM test article; read-out: RLM Clint
Method in brief: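 Rat or human liver microsomes were incubated with test article, and reactions started with an NADPH regenerating system. Samples at 0, 10, 30 and 90 minutes were quenched with cold acetonitrile and analyzed by LC/MS/MS. T½ and CLint came from the ln(% remaining) versus time slope, scaled by protein concentration.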

[2] = Rat colon pharmacokinetic study (plasma, colon, colon + fecal content); format: in vivo; settings: SD rats, 10 mg/kg oral gavage; for Colon + Feces AUC: colon homogenized with fecal content; for Colon AUC: colon washed of fecal content; for AUC / Cmax / half-life: Sprague-Dawley (SD), rat; for AUC / Cmax: plasma; for half-life: in vivo
Description: The aim of this study was to obtain the pharmacokinetics of test articles in SD rats after oral administration. […] Rats were dosed with 10 mg/kg (1 mg/ml) via oral gavage. After dosing, blood and colon samples were collected at each time point (typically 0.5, 1, 3, 6, 24 hour). Blood was collected into appropriately labeled tubes containing K2EDTA as the anticoagulant. Plasma was obtained within one hour of blood collection by centrifugation at 8000g, 4-10° C. for 6 minutes, and then stored at −20° C. until analyzed by LC-MS/MS for quantification. Colon tissues were collected from exsanguinated rats at each time point. Collected colon tissue was divided into two parts. One part for the measurement of test articles in colon was washing three times by PBS to remove the fecal content before homogenization. The other part was homogenized with the fecal content for the measurement of test articles in colon and fecal content. Colon samples were homogenized in 1:5 (w/v) phosphate buffer (100 mM, pH 7.4). Homogenized samples were extracted with 3 fold volumes of acetonitrile and quantified against a standard curve with LC-MS/MS system.

In the case of `N#CCNC(=O)c1ccc(-c2nc(Nc3cnn(C4CC4)c3)ncc2Cl)cc1` [Example 95, 4-(5-Chloro-2-((1-cyclopropyl-1H-pyrazol-4-yl)amino)pyrimidin-4-yl)-N-(cyanomethyl)benzamide], the IC50 (FLT3) is reported as 5.35 nM and the microsomal CLint at 1 μM [1] is reported as 31.1 µL/min/mg.

With `C[C@@H](C#N)NC(=O)c1ccc(-c2nc(Nc3cnn(C4CCN(C)CC4)c3)ncc2Cl)cc1` [Example 43, (S)-4-(5-Chloro-2-((1-(1-methylpiperidin-4-yl)-1H-pyrazol-4-yl)amino)pyrimidin-4-yl)-N-(1-cyanoethyl)benzamide] the “Colon + Feces AUC” value [2] was 559,570 h*ng/g, the “Colon AUC” value [2] was 3860 ng·h/g and the AUC [2] was 0.4 ng·h/mL. For the same compound, the Cmax [2] was 1.6 ng/mL and the microsomal CLint at 1 μM [1] was 101 µL/min/mg.

For `Cc1cnc(Nc2cnn(C3CC(C)(C)OC(C)(C)C3)c2)nc1-c1ccc(C(=O)NCC#N)cc1` [Example 113, N-(cyanomethyl)-4-(5-methyl-2-((1-(2,2,6,6-tetramethyltetrahydro-2H-pyran-4-yl)-1H-pyrazol-4-yl)amino)pyrimidin-4-yl)benzamide], the microsomal CLint at 1 μM [1] was 73.9 µL/min/mg.

With `CC[C@@H](C#N)NC(=O)c1ccc(-c2nc(Nc3cnn(C4CCNCC4)c3)ncc2Cl)cc1` [Example 183, (S)-4-(5-chloro-2-((1-(piperidin-4-yl)-1H-pyrazol-4-yl)amino)pyrimidin-4-yl)-N-(1-cyanopropyl)benzamide] the microsomal CLint at 1 μM [1] was 18.9 µL/min/mg.

For `Cn1cc(Nc2ncc(Cl)c(-c3ccc(C(=O)NCC#N)cc3)n2)cn1` [Example 34, 4-(5-Chloro-2-((1-methyl-1H-pyrazol-4-yl)amino)pyrimidin-4-yl)-N-(cyanomethyl)benzamide], the IC50 (FLT3) was 10.9 nM and the microsomal CLint at 1 μM [1] was 31.6 µL/min/mg.

`Cc1cnc(Nc2cnn(C)c2)nc1-c1ccc(C(=O)NC(C)C)cc1` [Example 223, N-isopropyl-4-(5-methyl-2-((1-methyl-1H-pyrazol-4-yl)amino)pyrimidin-4-yl)benzamide] gave an IC50 (FLT3) of 1100 nM.

Compound `C[C@@H](C#N)NC(=O)c1ccc(-c2nc(Nc3cnn(C)c3)ncc2Cl)cc1` [Example 125, (S)-4-(5-chloro-2-((1-methyl-1H-pyrazol-4-yl)amino)pyrimidin-4-yl)-N-(1-cyanoethyl)benzamide] has an IC50 (FLT3) of 23.6 nM and a microsomal CLint at 1 μM [1] of 28.4 µL/min/mg.

For `CC[C@@H](C#N)NC(=O)c1ccc(-c2nc(Nc3cnn(C4CCN(C)CC4)c3)ncc2C)cc1` [Example 184, (S)—N-(1-Cyanopropyl)-4-(5-methyl-2-((1-(1-methylpiperidin-4-yl)-1H-pyrazol-4-yl)amino)pyrimidin-4-yl)benzamide], the “Colon + Feces AUC” value [2] was 827,222 h*ng/g, the “Colon AUC” value [2] was 3,961 h*ng/g and the half-life [2] was 0.5 h. The AUC [2] was 8.9 ng·h/mL, the Cmax [2] was 9.3 ng/mL and the microsomal CLint at 1 μM [1] was 78.5 µL/min/mg.

For `Cc1cnc(Nc2cnn(C3CCN(C(=O)CO)CC3)c2)nc1-c1ccc(C(=O)N[C@@H](C)C#N)cc1` [Example 119, (S)—N-(1-cyanoethyl)-4-(2-((1-(1-(2-hydroxyacetyl)piperidin-4-yl)-1H-pyrazol-4-yl)amino)-5-methylpyrimidin-4-yl)benzamide], the “Colon + Feces AUC” value [2] was 1,629,181 h*ng/g, the “Colon AUC” value [2] was 6898 ng·h/g and the AUC [2] was 23.7 ng·h/mL. For the same compound, the Cmax [2] was 16 ng/mL.

Compound `CC[C@@H](C#N)NC(=O)c1ccc(-c2nc(Nc3cnn(C4CC4)c3)ncc2Cl)cc1` [Example 61, (S)-4-(5-chloro-2-((1-cyclopropyl-1H-pyrazol-4-yl)amino)pyrimidin-4-yl)-N-(1-cyanopropyl)benzamide] has an IC50 (FLT3) of 3.36 nM.

Work on `C[C@@H](C#N)NC(=O)c1ccc(-c2nc(Nc3cnn(C4CC4)c3)ncc2Cl)cc1` [Example 111, (S)-4-(5-Chloro-2-((1-cyclopropyl-1H-pyrazol-4-yl)amino)pyrimidin-4-yl)-N-(1-cyanoethyl)benzamide] yielded an IC50 (FLT3) of 6.73 nM.

In the case of `C[C@@H](C#N)NC(=O)c1ccc(-c2nc(Nc3cnn(C4CCNCC4)c3)ncc2Cl)cc1` [Example 165, (S)-4-(5-chloro-2-((1-(piperidin-4-yl)-1H-pyrazol-4-yl)amino)pyrimidin-4-yl)-N-(1-cyanoethyl)benzamide], the microsomal CLint at 1 μM [1] is reported as 26 µL/min/mg.

With `CNC(=O)c1ccc(-c2nc(Nc3cnn(C)c3)ncc2C)cc1` [Example 10, N-Methyl-4-(5-methyl-2-((1-methyl-1H-pyrazol-4-yl)amino)pyrimidin-4-yl)benzamide] the IC50 (FLT3) was 1200 nM.

With `Cc1cnc(Nc2cnn(CC#N)c2)nc1-c1ccc(C(=O)NCC#N)cc1` [Example 4, N-(Cyanomethyl)-4-(2-((1-(cyanomethyl)-1H-pyrazol-4-yl)amino)-5-methylpyrimidin-4-yl)benzamide] the “Colon + Feces AUC” value [2] was 545,501 h*ng/g, the “Colon AUC” value [2] was 6,623 h*ng/g and the half-life [2] was 1.6 h. The AUC [2] was 96 ng·h/mL, the Cmax [2] was 68.8 ng/mL and the microsomal CLint at 1 μM [1] was 16.4 µL/min/mg.

In the case of `CCNC(=O)c1ccc(-c2nc(Nc3cnn(C)c3)ncc2C)cc1` [Example 222, N-ethyl-4-(5-methyl-2-((1-methyl-1H-pyrazol-4-yl)amino)pyrimidin-4-yl)benzamide], the IC50 (FLT3) is reported as 1890 nM.
